In the NIST ThermoML archive (doi:10.1016/j.jct.2005.12.010):
Several values for one entry are separate records, joined by “and”; a condition that tells them apart may be missing. Equal values may be shown once.

Columns and labels:
[1] = 101 kPa, Liquid
[2] = xn = mol fraction of the nth substance listed; settings: 101 kPa, Liquid

CCCCO [butan-1-ol]
[1]
Settings | mass density [kg/m3] | speed of sound [m/s] | viscosity [mPa·s]
293.15 K | 809.5 | 1257 | 2.941
298.15 K | 805.75 | 1240 | 2.571
303.15 K | 801.8 | 1224 | 2.255

CCCCO [butan-1-ol] + CC1CCCC1
[2], x2 = 0
Settings | speed of sound [m/s]
293.15 K | 1257
298.15 K | 1240
303.15 K | 1224

CCC(C)O (centres undefined) [butan-2-ol]
[1]
Settings | mass density [kg/m3] | speed of sound [m/s] | viscosity [mPa·s]
293.15 K | 806.84 | 1230 | 3.623
298.15 K | 802.72 | 1212 | 2.995
303.15 K | 798.51 | 1194 | 2.493

CCC(C)O (centres undefined) [butan-2-ol] + CC1CCCC1
[2], x2 = 0
Settings | speed of sound [m/s]
293.15 K | 1230
298.15 K | 1212
303.15 K | 1194

CCO [ethanol]
[1]
Settings | mass density [kg/m3] | speed of sound [m/s] | viscosity [mPa·s]
293.15 K | 789.75 | 1162 | 1.187
298.15 K | 785.46 | 1145 | 1.082
303.15 K | 781.15 | 1128 | 0.987

CCO [ethanol] + CC1CCCC1
[2], x2 = 0
Settings | mass density [kg/m3] | speed of sound [m/s]
293.15 K | 789.75 | 1162
298.15 K | 785.46 | 1145
303.15 K | 781.15 | 1128

CC1CCCC1 [methylcyclopentane]
[1]
Settings | mass density | speed of sound [m/s] | viscosity [mPa·s]
293.15 K | 746.64 kg/m3 | 1197 | 0.504
298.15 K | 741.94 kg/m3 and 741.9 kg/m3 | 1174 | 0.476
303.15 K | 737.21 kg/m3 | 1150 | 0.45

CC1CCCC1 [methylcyclopentane] + CC(C)O
speed of sound [m/s], [2]
Settings | 293.15 K | 298.15 K | 303.15 K
x1 = 0.0478 | 1154 | 1136 | 1118
x1 = 0.1003 | 1152 | 1134 | 1115
x1 = 0.2092 | 1150 | 1130 | 1110
x1 = 0.2989 | 1150 | 1129 | 1108
x1 = 0.4151 | 1150 | 1129 | 1108
x1 = 0.4967 | 1152 | 1131 | 1109
x1 = 0.603 | 1156 | 1134 | 1111
x1 = 0.7118 | 1162 | 1140 | 1117
x1 = 0.8061 | 1170 | 1147 | 1124
x1 = 0.9026 | 1180 | 1157 | 1134
x1 = 0.9555 | 1187 | 1164 | 1141
x1 = 1 | 1197 | 1174 | 1150
